Test results: patent US20150031622A1, “RHOGEF12 IS A THERAPEUTIC TARGET FOR THE TREATMENT OF HEART FAILURE” (MAX-PLANCK-GESELLSCHAFT ZUR FÖRDERUNG DER WISSENSCHAFTEN …, priority 2012, published 2015)
Bridges are numbered along the chain shown (N, C = ends). Where no end group is shown, it is not given here.

System: neonatal rat ventricular myocytes (NRVM)
Assay: qRT-PCR of hypertrophy-specific genes (ANP, β-MHC) in NRVM
Assay type: cell-based
Settings: NRVM control cells
Experimental: Neonatal rat ventricular myocytes (NRVM) were isolated from 1-2 days old rat neonates using a kit from Worthington Biochemical Corporation (Lakewood, N.J., USA). After digestion, cells were pre-plated for 1 h to remove nonmyocytes, plated on cell culture dishes pre-coated with 1% gelatin (Sigma-Aldrich) and then cultured in Dulbecco's modified Eagle's medium (DMEM) with 10% fetal bovine serum. The following day, cells were cultured in serum-free DMEM medium containing 100 μM 5-bromo 2′-deoxy-uridine (BrdU; Sigma-Aldrich). NRVM were transfected with siRNAs (Qiagen, Chatsworth, Calif., USA or Sigma-Aldrich) using Lipofectamine RNAiMAX (Invitrogen, San Diego, Calif., USA) 3 h and 20 h after plating according to the manufacturer's instructions. […]
RNA was extracted from left ventricles with the RNA fibrosis tissue kit (Qiagen) and from NRVM or adult mouse cardiomyocytes with the RNeasy Mini kit (Qiagen) according to the manufacture's protocol. […] Reverse transcriptase (RT) reaction was performed using the QuantiTect Reverse Transcription kit (Qiagen). Quantitative RT-PCR was performed using the LightCycler 480 Probe Master or LightCycler 480 SYBR Green Master (Roche). […]
Primers for the analysis of RhoGEF expression were used as described previously^40. Data are in all cases presented after normalization to GAPDH, in some cases the relative change compared to basal conditions was calculated.

endothelin-1 (CSCSSLMDKECVYFCHLDIIW; disulfide 1-15, 3-11; ends not checked; UniProt P05305 53-73, looked up) [ET-1, hypertrophic stimulus, GPCR agonist, purchased from Sigma-Aldrich]
expression of hypertrophy-specific genes (ANP, β-MHC) after stimulus: increased gene expression
